Test results reported in patent US20240016876A1, “COMPOSITION FOR HANGOVER RELIEF COMPRISING NONI FRUIT EXTRACT OR FRACTION THEREOF AND USE THEREOF” (Cosmax NBT, Inc., priority 2020, published 2024).

tested on: alcohol dehydrogenase (ADH); test: ADH activity enhancing efficacy (in vitro, Bergmeyer method); assay type: biochemical; details: samples treated at 10 μM; control group (CTL) not treated = 100%; FIGS. 1 and 2
Experimental: The ADH activity was measured by referring to [Bergmeyer, H. U. 1974. Methods of enzymatic analysis. Academic Press, New York. pp. 28], and measurements were made according to the method presented herein. All samples were treated at 10 μM, and the ADH activity of each sample was expressed as relative activity (%) with respect to the control group, based on 100% of the activity of the control group (CTL) which was not treated with the sample.

| Structure (SMILES) | ADH activity compared to the control group |
| --- | --- |
| O=C(O)C1=CO[C@@H](O[C@@H]2O[C@H](CO)[C@@H](O)[C@H](O)[C@H]2O)[C@@H]2C(CO)=C[C@H](O)[C@H]12 [deacetylasperulosidic acid] | did not show an increase |
| O=C(O)/C=C/c1ccc(O)c(O)c1 [caffeic acid] | did not show an increase |
| O=C(/C=C/c1ccc(O)c(O)c1)O[C@@H]1C[C@](O)(C(=O)O)C[C@@H](O)[C@H]1O [chlorogenic acid] | did not show an increase |
| O=C(O)c1ccc(O)cc1 [4-hydroxybenzoic acid] | did not show an increase |
| COc1cc2ccc(=O)oc2cc1O [scopoletin] | did not show an increase |
| COc1ccc(C(=O)O)cc1 [p-anisic acid] | did not show an increase |
| CC(=O)OCC1=C[C@@H]2OC(=O)C3=CO[C@@H](O[C@@H]4O[C@H](CO)[C@@H](O)[C@H](O)[C@H]4O)[C@H]1[C@@H]32 [asperuloside] | did not show an increase |
| CC(=O)OCC1=C[C@H](O)[C@@H]2C(C(=O)O)=CO[C@@H](O[C@@H]3O[C@H](CO)[C@@H](O)[C@H](O)[C@H]3O)[C@H]12 [asperulosidic acid] | did not show an increase |
| O=C(O)c1cc(O)c(O)c(O)c1 [gallic acid] | did not show an increase |
